Test results published in patent US8455534B2, “Estrogen receptor modulators and uses thereof” (Aragon Pharmaceuticals, Inc., priority 2010, dated 2013).

Experiments:
MCF-7 cells = experiment: Breast Cancer Cell Viability Assay (MCF-7, CellTiter-Glo); assay type: cell-based; conditions: 5 days' compound exposure; for IC50: Homo sapiens, MCF7, 120 h
Outline: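 MCF-7 cells, 320 per well in RPMI with 10% FBS and 20 mM HEPES, adhered overnight, then exposed 5 days to an eleven-point semilog dilution (final 0.3-0.000003 μM). CellTiter-Glo luminescence read; % viability = (sample − cell-free background)/(untreated − background) × 100.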

ER-α = biological target: T1, ER-α (Homo sapiens, UniProt P03372); experiment: Breast Cancer Cell ER-α In Cell Western Assay (SP1); assay type: cell-based; conditions: MCF-7 cells, SP1 antibody, 4 or 24 hr post compound addition; for Emax: MCF7, read-out: ER-α In Cell Western Assay (SP1) Max Response; for DC50: read-out: ER-α In Cell Western Assay (SP1) IC50
T1 sequence (P03372 1-595): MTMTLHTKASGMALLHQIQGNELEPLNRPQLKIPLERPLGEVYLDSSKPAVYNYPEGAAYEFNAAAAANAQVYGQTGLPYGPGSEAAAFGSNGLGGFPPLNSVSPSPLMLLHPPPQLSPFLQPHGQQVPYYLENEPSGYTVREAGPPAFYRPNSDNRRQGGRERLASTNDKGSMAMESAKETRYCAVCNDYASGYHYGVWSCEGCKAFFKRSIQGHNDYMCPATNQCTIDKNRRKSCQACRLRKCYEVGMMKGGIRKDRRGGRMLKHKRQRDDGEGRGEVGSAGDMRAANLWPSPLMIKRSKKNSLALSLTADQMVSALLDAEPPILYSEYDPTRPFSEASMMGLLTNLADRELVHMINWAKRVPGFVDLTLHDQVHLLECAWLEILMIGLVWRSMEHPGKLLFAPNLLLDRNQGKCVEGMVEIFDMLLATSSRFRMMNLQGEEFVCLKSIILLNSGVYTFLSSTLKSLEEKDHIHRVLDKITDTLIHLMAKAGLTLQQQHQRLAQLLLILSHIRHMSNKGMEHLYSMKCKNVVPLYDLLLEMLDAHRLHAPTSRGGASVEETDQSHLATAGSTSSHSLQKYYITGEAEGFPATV
Outline: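 ER-α protein levels measured by in-cell western with SP1 antibody, ratioed to DRAQ5 DNA signal and given as percent of untreated controls. Compounds added at 0.3–0.000003 μM final (eleven semilog points) to adherent MCF-7 cells in stripped serum; exposure 4 or 24 h before fixation.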

SMILES | IC50 (MCF-7 cells) | Emax (ER-α) | DC50 (ER-α) | MCF7 Viability Assay Max Response (MCF-7 cells)
CC/C(=C(/c1ccc(/C=C/C(=O)O)c(C(F)(F)F)c1)c1ccc2[nH]ncc2c1)c1ccccc1 [Compound 107, (E)-3-(4-((Z)-1-(1H-Indazol-5-yl)-2-phenylbut-1-en-1-yl)-2-(trifluoromethyl)phenyl)acrylic acid] | > 100 nM | ≥ 40% | ≤ 100 nM | ++ (++ = a single % value ≧ 40%)
O=C(O)/C=C/c1ccc(/C(=C(\c2ccccc2)C(F)(F)F)c2ccc3[nH]ncc3c2)cc1 [Compound 68, (E)-3-(4-((Z)-3,3,3-Trifluoro-1-(1H-indazol-5-yl)-2-phenylprop-1-en-1-yl)phenyl)acrylic acid] | ≤ 100 nM | ≥ 40% | ≤ 100 nM | ++ (++ = a single % value ≧ 40%)
Cc1cc(F)ccc1/C(=C(\c1ccc(/C=C/C(=O)O)cc1)c1ccc2[nH]ncc2c1F)C1CC1 [Compound 71, (E)-3-(4-((E)-2-Cyclopropyl-1-(4-fluoro-1H-indazol-5-yl)-2-(4-fluoro-2-methylphenyl)vinyl)phenyl)acrylic acid] | ≤ 100 nM | ≥ 40% | ≤ 100 nM | ++ (++ = a single % value ≧ 40%)
CC/C(=C(/c1ccc(/C=C/C(=O)O)cc1)c1cc(Cl)c2[nH]ncc2c1)c1ccccc1 [Compound 35, (E)-3-(4-((E)-1-(7-Chloro-1H-indazol-5-yl)-2-phenylbut-1-en-1-yl)phenyl)acrylic acid] | ≤ 100 nM | ≥ 40% | ≤ 100 nM | ++ (++ = a single % value ≧ 40%)
O=C(O)/C=C/c1ccc(/C(=C(\c2ccccc2)C(F)F)c2ccc3[nH]ncc3c2)cc1 [Compound 64, (E)-3-(4-((Z)-3,3-Difluoro-1-(1H-indazol-5-yl)-2-phenylprop-1-en-1-yl)phenyl)acrylic acid] | ≤ 100 nM | ≥ 40% | ≤ 100 nM | ++ (++ = a single % value ≧ 40%)
CC/C(=C(/c1ccc(/C=C/C(=O)O)cc1)c1ccc2[nH]ncc2c1)c1cccc(OC(F)(F)F)c1 [Compound 83, (E)-3-(4-((E)-1-(1H-Indazol-5-yl)-2-(3-(trifluoromethoxy)phenyl)but-1-en-1-yl)phenyl)acrylic acid] | ≤ 100 nM | ≥ 40% | ≤ 100 nM | ++ (++ = a single % value ≧ 40%)
CC/C(=C(/c1ccc(/C=C/C(=O)O)cc1)c1ccc2[nH]nc(F)c2c1)c1ccc(F)cc1Cl [Compound 88, (E)-3-(4-((E)-2-(2-Chloro-4-fluorophenyl)-1-(3-fluoro-1H-indazol-5-yl)but-1-en-1-yl)phenyl)acrylic acid] | ≤ 100 nM | ≥ 40% | ≤ 100 nM | ++ (++ = a single % value ≧ 40%)
O=C(O)/C=C/c1ccc(/C(=C(\c2ccc(F)cc2Cl)C2CC2)c2ccc3[nH]ncc3c2F)cc1 [Compound 124, (E)-3-(4-((E)-2-(2-Chloro-4-fluorophenyl)-2-cyclopropyl-1-(4-fluoro-1H-indazol-5-yl)vinyl)phenyl)acrylic acid] | ≤ 100 nM | ≥ 40% | ≤ 100 nM | ++ (++ = a single % value ≧ 40%)
CC/C(=C(/c1ccc(/C=C/C(=O)O)c(F)c1)c1ccc2[nH]ncc2c1)c1ccccc1 [Compound 106, (E)-3-(4-((Z)-1-(1H-Indazol-5-yl)-2-phenylbut-1-en-1-yl)-2-fluorophenyl)acrylic acid] | ≤ 100 nM | ≥ 40% | ≤ 100 nM | ++ (++ = a single % value ≧ 40%)
COCC/C(=C(/c1ccc(/C=C/C(=O)O)cc1)c1ccc2[nH]ncc2c1)c1ccccc1 [Compound 47, (E)-3-(4-((E)-1-(1H-Indazol-5-yl)-4-methoxy-2-phenylbut-1-en-1-yl)phenyl)acrylic acid] | ≤ 100 nM | ≥ 40% | ≤ 100 nM | ++ (++ = a single % value ≧ 40%)
O=C(O)/C=C/c1ccc(/C(=C(/CCF)c2ccccc2)c2ccc3[nH]ncc3c2F)cc1 [Compound 79, (E)-3-(4-((E)-4-Fluoro-1-(4-fluoro-1H-indazol-5-yl)-2-phenylbut-1-en-1-yl)phenyl)acrylic acid] | ≤ 100 nM | ≥ 40% | ≤ 100 nM | ++ (++ = a single % value ≧ 40%)

Continued, in another order:

IC50 (MCF-7 cells) | Emax (ER-α) | DC50 (ER-α) | SMILES | MCF7 Viability Assay Max Response (MCF-7 cells)
≤ 100 nM | ≥ 40% | ≤ 100 nM | CC/C(=C(/c1ccc(/C=C/C(=O)O)cc1)c1ccc2[nH]ncc2c1)c1c(C)cccc1Cl [Compound 34, (E)-3-(4-((E)-2-(2-Chloro-6-methylphenyl)-1-(1H-indazol-5-yl)but-1-en-1 yl)phenyl)acrylic acid] | ++ (++ = a single % value ≧ 40%)
≤ 100 nM | ≥ 40% | ≤ 100 nM | CC/C(=C(/c1ccc(/C=C/C(=O)O)cc1)c1ccc2[nH]ncc2c1)c1cc(F)ccc1F [Compound 32, (E)-3-(4-((E)-2-(2,5-Difluorophenyl)-1-(1H-indazol-5-yl)but-1-en-1-yl)phenyl)acrylic acid] | ++ (++ = a single % value ≧ 40%)
≤ 100 nM | ≥ 40% | ≤ 100 nM | CC/C(=C(/c1ccc(/C=C/C(=O)O)cc1)c1ccc2[nH]ncc2c1)c1c(Cl)cccc1Cl [Compound 27, (E)-3-(4-((E)-2-(2,6-Dichlorophenyl)-1-(1H-indazol-5-yl)but-1-en-1-yl)phenyl)acrylic acid] | ++ (++ = a single % value ≧ 40%)
> 100 nM | ≥ 40% | > 100 nM | CC/C(=C(/c1ccc(/C=C/C(=O)O)cc1)c1ccc2[nH]ncc2c1)c1ccc(S(C)(=O)=O)cc1F [Compound 131, (E)-3-(4-((E)-2-(2-Fluoro-4-(methylsulfonyl)phenyl)-1-(1H-indazol-5-yl)but-1-en-1-yl)phenyl)acrylic acid] | ++ (++ = a single % value ≧ 40%)
≤ 100 nM | ≥ 40% | – | CC/C(=C(/c1ccc(/C=C/C(=O)O)cc1)c1ccc2[nH]ncc2c1)c1cccc(Cl)c1 [Compound 15, (E)-3-(4-((E)-2-(3-Chlorophenyl)-1-(1H-indazol-5-yl)but-1-en-1-yl)phenyl)acrylic acid] | ++ (++ = a single % value ≧ 40%)
≤ 100 nM | ≥ 40% | – | CC/C(=C(/c1ccc(/C=C/C(=O)O)cc1)c1ccc2[nH]ncc2c1)c1cccc(C#N)c1 [Compound 44, (E)-3-(4-((E)-2-(3-Cyanophenyl)-1-(1H-indazol-5-yl)but-1-en-1-yl)phenyl)acrylic acid] | ++ (++ = a single % value ≧ 40%)
≤ 100 nM | ≥ 40% | ≤ 100 nM | CC/C(=C(/c1ccc(/C=C/C(=O)O)cc1)c1ccc2[nH]ncc2c1)c1cc(F)ccc1C [Compound 30, (E)-3-(4-((E)-2-(5-Fluoro-2-methylphenyl)-1-(1H-indazol-5-yl)but-1-en-1-yl)phenyl)acrylic acid] | ++ (++ = a single % value ≧ 40%)
≤ 100 nM | ≥ 40% | – | CC/C(=C(/c1ccc(/C=C/C(=O)O)cc1)c1ccc2[nH]ncc2c1)c1ccc(C#N)cc1Cl [Compound 140, (E)-3-(4-((E)-2-(2-Chloro-4-cyanophenyl)-1-(1H-indazol-5-yl)but-1-en-1-yl)phenyl)acrylic acid] | ++ (++ = a single % value ≧ 40%)
≤ 100 nM | ≥ 40% | ≤ 100 nM | O=C(O)/C=C/c1ccc(/C(=C(/CCCl)c2ccc(F)cc2Cl)c2ccc3[nH]ncc3c2)cc1 [Compound 67, (E)-3-(4-((E)-4-Chloro-2-(2-chloro-4-fluorophenyl)-1-(1H-indazol-5-yl)but-1-en-1-yl)phenyl)acrylic acid] | ++ (++ = a single % value ≧ 40%)
≤ 100 nM | ≥ 40% | ≤ 100 nM | CCOC(=O)/C=C/c1ccc(/C(=C(/CC)c2ccc(F)cc2Cl)c2ccc3[nH]ncc3c2)cc1.Cl [Compound 110, (E)-Ethyl 3-(4-((E)-2-(2-chloro-4-fluorophenyl)-1-(1H-indazol-5-yl)but-1-en-1-yl)phenyl)acrylate hydrochloride] | + (+ = a single % value < 40%)
≤ 100 nM | ≥ 40% | ≤ 100 nM | CC/C(=C(/c1ccc(/C=C/C(=O)O)cc1)c1ccc2[nH]ncc2c1)c1ccccc1CC [Compound 18, (E)-3-(4-((E)-2-(2-Ethylphenyl)-1-(1H-indazol-5-yl)but-1-en-1-yl)phenyl)acrylic acid] | ++ (++ = a single % value ≧ 40%)
